Columns and labels:
LDHA [1] = system: LDHA; set-up: method as in PMID 39054614; details: enzymatic assays; cited from earlier work
LDHB [2] = target: T1, LDHB (Homo sapiens, UniProt P07195); assay: LDHB activity assay, 96-well endpoint colorimetric (lactate to pyruvate, NADH/NBT/PMS formazan, 570 nm); format: biochemical; details: for IC50: dose-response, nonlinear regression
T1 construct: purchased R&D Systems (Minneapolis, MN, USA) 9205-HB
From the text: This assay is based on the detection of NADH generated during the enzymatic conversion of lactate to pyruvate (via reduction of NAD^+), which subsequently reacts with nitro blue tetrazolium (NBT) in the presence of phenazine methosulfate (PMS). This reaction produces a blue-purple formazan dye with a maximum absorbance at approximately 570 nm.
Unless otherwise specified, all chemicals were obtained from Sigma-Aldrich (St. Louis, MO, USA). Recombinant human LDHB (Catalog #: 9205-HB) was purchased from R&D Systems (Minneapolis, MN, USA). […] AXKO-0046 (Catalog #: HY-147216A) was obtained from MedChemExpress (Monmouth Junction, NJ, USA).
This assay quantifies LDHB activity by measuring NADH generation resulting from the conversion of lactate to pyruvate, a reaction catalyzed by LDHB. The produced NADH reacts with nitro blue tetrazolium (NBT) in the presence of phenazine methosulfate (PMS), generating a blue-purple formazan dye detectable at approximately 570 nm.
The reaction was performed in a buffer containing 50 mM CHES (pH 9.6), 150 mM NaCl, 300 μM NBT, 30 μM PMS, and 0.13% gelatin (used to prevent formazan precipitation). Each well was loaded with 90 μL of the reaction buffer followed by 25 μL of a substrate solution comprising 10 mM NAD^+ and 250 mM sodium lactate in the same buffer. Next, 5 μL of the test compound at varying concentrations was added; the buffer alone was used in the control wells. The plates were incubated for 30 s at 25 °C in the dark before measuring the initial absorbance at 570 nm (Ainitial) using a microplate reader (PerkinElmer, Waltham, MA, USA). The reaction was initiated by adding 2 μL of 7.5 μM LDHB. After a 5 min incubation with continuous shaking, a second absorbance measurement (Afinal) was taken.
The difference in absorbance (ΔA570 = Afinal − Ainitial) was used to calculate the amount of NADH produced by referencing a standard curve (0–15 nmol NADH). Readings were corrected for background using a blank lacking LDHB. One unit of enzyme activity was defined as the amount of enzyme producing 1 μmol of NADH per minute at 25 °C. LDHB activity (mU/mL) was calculated using the following Equation (1):(1) LDH activity(mU/mL)=[NADH](nmol)/Tfinal−Tinitial(min)×V(mL)=nmol/min×mL where [NADH] is the amount (in nmol) of NADH that is released between Tfinal and Tinitial, and V is the sample volume (LDHB in mL) added in each well of the 96-well plate.
IC50 values for each compound were calculated using GraphPad Prism v8.0.2 (GraphPad Software Inc., San Diego, CA, USA) by fitting dose–response curves to the enzymatic activity data via nonlinear regression analysis. All the measurements were performed in triplicate.

LDHA [3] = details: cited from earlier work
LDHC = details: cited from earlier work
LDHA [4] = system: LDHA; set-up: method as in PMID 34571279; details: EMMA; cited from earlier work
LDHB [5] = target: T1, LDHB; assay: Effect of pre-incubation time on LDHB inhibition; format: biochemical; details: pre-incubation with LDHB for 120 min, compound 50 µM
Experimental: Supplementary Figure S2. The eﬀect of pre-incubation time on the inhibitory activity of […]
Each compound (50 µΜ) was incubated with […] of LDHB in a 10 µL reaction within a 96-well plate for varying times. The reaction was carried out in 80 µL of 50 mM CHES buﬀer (pH 9.6) containing 150 mM NaCl, 300 µΜ NBT, 30 µΜ PMS, and 0.13% gelatin, with 10 µL of substrate mix (10 mM NAD+ and 250 mM sodium lactate) added to initiate the reaction. LDHB activity was measured as described in the text, with control wells lacking inhibitors. Statistical signiﬁcance was determined using one way ANONA (p < 0.05), with ʹn.s.ʹ indicating non- […]
(1 picture or pasted object on this page, not shown here)

LDHB [6] = target: T1, LDHB; assay: LDHB kinetic studies (substrate competition, Michaelis-Menten, mixed-model inhibition); format: biochemical; details: for mechanism of LDHB inhibition: Michaelis-Menten analysis, vs lactate and NAD+; for Vmax, NAD+: NAD+ varied, 25 mM sodium lactate; for Vmax, lactate: lactate varied, NAD+ 1 mM; for Ki / α (alpha factor, mechanism of inhibition): mixed-model inhibition fit; for α (alpha factor, mechanism of inhibition): α < 1 uncompetitive
Experimental: These kinetic studies followed the classical Michaelis–Menten framework. For NAD^+ titration, assays were performed using eight NAD^+ concentrations (120, 240, 360, 480, 700, 900, 1000, and 1200 μM) in the presence of 25 mM sodium lactate. For lactate titration, eight lactate concentrations (2.5, 5, 10, 15, 20, 25, 37.5, and 50 mM) were evaluated with a fixed NAD^+ concentration of 1 mM. Each reaction was carried out with 2.5 nM LDHB and increasing concentrations of either inhibitor (5–100 μM), followed by incubation at room temperature for 6.5 min. Initial reaction velocities were determined and fitted to a nonlinear Michaelis–Menten model to extract apparent kinetic parameters (Km and Vmax) using GraphPad Prism v8.0.2 (GraphPad Software Inc., San Diego, CA, USA). Lineweaver–Burk plots (1/V vs. 1/[S]) were also generated to visualize shifts in enzyme kinetics. To complement these analyses, the data were further examined using a mixed-model inhibition approach within GraphPad Prism. This model, which avoids the distortions associated with reciprocal transformations, evaluates inhibition kinetics using polynomial regression and is governed by the following equations [70]. The mixed-model fit is described by Equations (2)–(4), and contains competitive, uncompetitive, and noncompetitive inhibition terms:(2) Vmaxapp=Vmax/(1+I/a·Ki) (3) Kmapp=Km·(1+I/Ki)/(1+I/a·Ki) (4) Y=Vmaxapp·X/(Kmapp+X)
In the above equations, Vmaxapp and Kmapp are the maximum enzyme activity and Michaelis–Menten constant, respectively, in the presence of an inhibitor; Vmax and Km represent the maximum enzyme velocity and Michaelis–Menten constant, respectively, in the absence of an inhibitor; and Ki is the inhibition constant. In addition, X is the substrate concentration, Y is the enzyme activity, I is the inhibitor concentration, and alpha (α) is a coefficient that defines the mechanism of inhibition.

T1 sequence (P07195 whole entry): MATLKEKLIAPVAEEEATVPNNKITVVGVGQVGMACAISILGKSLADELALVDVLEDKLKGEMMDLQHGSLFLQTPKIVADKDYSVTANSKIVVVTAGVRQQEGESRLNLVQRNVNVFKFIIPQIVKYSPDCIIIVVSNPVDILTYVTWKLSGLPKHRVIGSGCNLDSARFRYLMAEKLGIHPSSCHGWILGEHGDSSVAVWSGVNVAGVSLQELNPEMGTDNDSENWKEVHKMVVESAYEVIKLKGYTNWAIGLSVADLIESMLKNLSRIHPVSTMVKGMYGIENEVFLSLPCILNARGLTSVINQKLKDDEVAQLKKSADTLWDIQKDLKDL

SMILES	IC50 (LDHA [1]) [µM]	inhibition at 50 µM (LDHB [2]; compound at 50 µM) [%]	IC50 (LDHB [2]) [µM]	inhibition rate of LDHA activity (LDHA [4])	change of inhibitory effect with longer pre-incubation time (LDHB [5])	mechanism of LDHB inhibition (LDHB [6])	Vmax, NAD+ (LDHB [6]; inhibitor 10 μM) [mU/mL]	Vmax, NAD+ (LDHB [6]; inhibitor 20 μM) [mU/mL]	Vmax, NAD+ (LDHB [6]; inhibitor 30 μM) [mU/mL]	Vmax, NAD+ (LDHB [6]; inhibitor 40 μM) [mU/mL]	Vmax, NAD+ (LDHB [6]; inhibitor 50 μM) [mU/mL]	Vmax, NAD+ (LDHB [6]; inhibitor 75 μM) [mU/mL]	Vmax, NAD+ (LDHB [6]; inhibitor 100 μM) [mU/mL]	Vmax, lactate (LDHB [6]; inhibitor 10 μM) [mU/mL]	Vmax, lactate (LDHB [6]; inhibitor 20 μM) [mU/mL]	Vmax, lactate (LDHB [6]; inhibitor 30 μM) [mU/mL]	Vmax, lactate (LDHB [6]; inhibitor 40 μM) [mU/mL]	Vmax, lactate (LDHB [6]; inhibitor 50 μM) [mU/mL]	Vmax, lactate (LDHB [6]; inhibitor 75 μM) [mU/mL]	Vmax, lactate (LDHB [6]; inhibitor 100 μM) [mU/mL]	also measured
O=c1c(O)c(-c2ccc(O)c(O)c2)oc2cc(O)ccc12 [Fisetin]	0.066	~22																			
c1ccc(CNCCc2c(CNC3CCCCCC3)[nH]c3ccccc23)cc1 [AXKO-0046, reference compound]		~75	0.00556																		
Cc1cc2c(C(C)C)c(O)c(O)c(C=O)c2c(O)c1-c1c(C)cc2c(C(C)C)c(O)c(O)c(C=O)c2c1O [gossypol, Gossypol]																					Ki (LDHA [3]): 1.9 µM; Ki (LDHC): 4.2 µM
CC[C@@]1(O)C(=O)OCc2c1cc1n(c2=O)Cc2cc3ccccc3nc2-1 [Camptothecin]				no inhibitory effect																	inhibition of LDHB activity (LDHB [2]; compound at 50 µM): minimal inhibition
O=c1c(O)c(-c2ccc(O)c(O)c2)oc2cc(O)cc(O)c12 [Quercetin]	33.6	~50	37.7	53.6%	did not increase	uncompetitive inhibition	952 ± 36	861 ± 22	761 ± 52	701 ± 44	605 ± 46	504 ± 44	454 ± 33	938 ± 29	881 ± 19	791 ± 37	689 ± 53	621 ± 23	557 ± 37	478 ± 26	Ki (LDHB [6]; with NAD+): 539 µM; α (alpha factor, mechanism of inhibition) (LDHB [6]; with NAD+): 0.14; Ki (LDHB [6]; with lactate): 265 µM; α (alpha factor, mechanism of inhibition) (LDHB [6]; with lactate): 0.31
O=c1cc(-c2ccc(O)c(O)c2)oc2cc(O)cc(O)c12 [Luteolin]	1.79	~55	32.2	50.7%	did not increase	uncompetitive inhibition	945 ± 27	868 ± 35	774 ± 32	664 ± 40	563 ± 29	456 ± 27	417 ± 22	942 ± 31	888 ± 16	832 ± 21	749.2 ± 17	624 ± 24	506 ± 15	406 ± 22	Ki (LDHB [6]; with NAD+): 194 µM; α (alpha factor, mechanism of inhibition) (LDHB [6]; with NAD+): 0.34; Ki (LDHB [6]; with lactate): 349 µM; α (alpha factor, mechanism of inhibition) (LDHB [6]; with lactate): 0.21

— publication PMC12299506, “Flipping the Target: Evaluating Natural LDHA Inhibitors for Selective LDHB Modulation” (Molecules, 2025)
